Measured values published in ChEMBL document CHEMBL1201862, “PubChem BioAssay data set” (2004).
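Results reflect a 48-hour exposure of cells in 96-well plates to compound at five concentrations. GI50 marks 50% less growth.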 Activity calls are given as the source filed them. No stated cut-off is given here; in the data, active = GI50 up to about 1.1 µM and inactive = higher.

Legend:
Assay in all cases: NCI anticancer screen, dose series, 48 h
SK-OV-3 = test system: SK-OV-3
UO-31 = test system: UO-31
KM12 = test system: KM12
NCI-H226 = test system: NCI-H226
HCT-15 = test system: HCT-15
SR = test system: SR
M14 = test system: M14
OVCAR-4 = test system: OVCAR-4
K562 = test system: K562
HL-60 = test system: HL-60
SF-539 = test system: SF-539
SN12C = test system: SN12C
OVCAR-3 = test system: OVCAR-3
EKVX = test system: EKVX
CAKI-1 = test system: CAKI-1
SK-MEL-2 = test system: SK-MEL-2

Row | Structure (SMILES) | GI50 (SK-OV-3) | GI50 (UO-31) | GI50 (KM12) | GI50 (NCI-H226) | GI50 (HCT-15) [µM] | GI50 (SR) | GI50 (M14) | GI50 (OVCAR-4) | GI50 (K562) | GI50 (HL-60) | GI50 (SF-539) | GI50 (SN12C) | GI50 (OVCAR-3) | GI50 (EKVX) | GI50 (CAKI-1) | GI50 (SK-MEL-2)
1 | Cn1c2c(c3ccccc31)C1CCCCC1C1C(=O)NC(=O)C21 (stereo unspecified) | > 100 µM (inactive) | 28.6 µM (inactive) | 54.3 µM (inactive) | 21.6 µM (inactive) | 68.9 | 32.1 µM (inactive) | 57.9 µM (inactive) | 56.5 µM (inactive) | 40.6 µM (inactive) | 26.6 µM (inactive) | 80.7 µM (inactive) | 33.2 µM (inactive) | 17 µM (inactive) | 32.8 µM (inactive) | – | –
2 | CN(C)CCCNC(=O)c1cccc2nc3ccccc3nc12 | > 52.1 µM (inactive) | 24.5 µM (inactive) | 13.5 µM (inactive) | 12 µM (inactive) | 15.2 | 4.57 µM (inactive) | 22 µM (inactive) | 14.1 µM (inactive) | 7.46 µM (inactive) | – | 16.3 µM (inactive) | 23.2 µM (inactive) | 19.4 µM (inactive) | 27.3 µM (inactive) | > 36.1 µM (inactive) | 14.8 µM (inactive)
3 | COCOCCC#CCO | > 100 µM (inactive) | > 100 µM (inactive) | > 100 µM (inactive) | – | > 100 | 83.8 µM (inactive) | > 100 µM (inactive) | – | > 100 µM (inactive) | > 100 µM (inactive) | > 100 µM (inactive) | > 100 µM (inactive) | > 100 µM (inactive) | > 100 µM (inactive) | – | > 100 µM (inactive)
4 | O=C(/C=C/c1ccc(Cl)c(Cl)c1)c1ccc(F)cc1 | 29 µM (inactive) | > 100 µM (inactive) | 8.65 µM (inactive) | 33.1 µM (inactive) | 10.2 | – | 16.9 µM (inactive) | 19.2 µM (inactive) | 4.33 µM (inactive) | 11.9 µM (inactive) | 20.8 µM (inactive) | 22.5 µM (inactive) | 18.6 µM (inactive) | 27.4 µM (inactive) | 18.5 µM (inactive) | –
5 | Cc1cc(N(CCC#N)CCC#N)ccc1/C=C(/NC(=O)/C=C/c1ccccc1)C(N)=O | > 100 µM (inactive) | > 100 µM (inactive) | > 100 µM (inactive) | > 100 µM (inactive) | > 100 | – | > 100 µM (inactive) | – | 62.1 µM (inactive) | > 100 µM (inactive) | > 100 µM (inactive) | > 100 µM (inactive) | > 100 µM (inactive) | > 100 µM (inactive) | > 100 µM (inactive) | > 100 µM (inactive)
6 | COC(=O)/C(=C\c1ccc(N(CCC#N)CCC#N)cc1)NC(=O)c1cc([N+](=O)[O-])ccc1Cl | > 100 µM (inactive) | > 100 µM (inactive) | > 100 µM (inactive) | > 100 µM (inactive) | > 100 | 30.5 µM (inactive) | > 100 µM (inactive) | > 100 µM (inactive) | > 100 µM (inactive) | – | > 100 µM (inactive) | > 100 µM (inactive) | > 100 µM (inactive) | > 100 µM (inactive) | > 100 µM (inactive) | > 100 µM (inactive)
7 | Clc1ccc(CCN2CCOCC2)c(Cl)c1 | > 100 µM (inactive) | > 100 µM (inactive) | > 100 µM (inactive) | – | > 100 | > 100 µM (inactive) | > 100 µM (inactive) | > 100 µM (inactive) | > 100 µM (inactive) | > 100 µM (inactive) | > 100 µM (inactive) | > 100 µM (inactive) | – | > 100 µM (inactive) | > 100 µM (inactive) | > 100 µM (inactive)
8 | CCOc1ccc(NC(=O)C2=C(C)NC(C)=C(C(=O)Nc3ccc(OCC)cc3)C2c2ccc(O)c(OC)c2)cc1 | > 100 µM (inactive) | 52.4 µM (inactive) | 47.9 µM (inactive) | 40.3 µM (inactive) | – | – | > 100 µM (inactive) | 36.9 µM (inactive) | 40.8 µM (inactive) | 42.7 µM (inactive) | 28.8 µM (inactive) | 86.3 µM (inactive) | > 100 µM (inactive) | > 100 µM (inactive) | > 100 µM (inactive) | 64.6 µM (inactive)
9 | CC1C(O)=C(O)c2ccccc2N1O (stereo unspecified) | > 100 µM (inactive) | > 100 µM (inactive) | > 100 µM (inactive) | 37.4 µM (inactive) | 96.6 | – | > 100 µM (inactive) | > 100 µM (inactive) | 38.7 µM (inactive) | 44.2 µM (inactive) | > 100 µM (inactive) | > 100 µM (inactive) | > 100 µM (inactive) | > 100 µM (inactive) | > 100 µM (inactive) | > 100 µM (inactive)
10 | CC1=NN(C(=O)Nc2ccc(Cl)cc2)C(=O)C2CCC(=O)N12 (stereo unspecified) | 38.7 µM (inactive) | 61.2 µM (inactive) | 28.9 µM (inactive) | – | 1.76 | > 100 µM (inactive) | > 100 µM (inactive) | 72.8 µM (inactive) | 3.19 µM (inactive) | 61.7 µM (inactive) | > 100 µM (inactive) | > 100 µM (inactive) | > 100 µM (inactive) | > 100 µM (inactive) | 60.3 µM (inactive) | > 100 µM (inactive)
11 | CC(=O)OC1C2CCC1C1C2C2(Cl)C(Cl)=C(Cl)C1(Cl)C2(Cl)Cl (stereo unspecified) | 16 µM (inactive) | 12.5 µM (inactive) | 13 µM (inactive) | 13 µM (inactive) | – | 9.95 µM (inactive) | 12.4 µM (inactive) | 19.7 µM (inactive) | – | – | 16.6 µM (inactive) | 15.1 µM (inactive) | 11.4 µM (inactive) | 11.3 µM (inactive) | 13.8 µM (inactive) | 10.2 µM (inactive)
12 | OC12c3ccccc3C1CCCCC2N1CCCC1 (stereo unspecified) | > 100 µM (inactive) | > 100 µM (inactive) | > 100 µM (inactive) | > 100 µM (inactive) | > 100 | > 100 µM (inactive) | > 100 µM (inactive) | > 100 µM (inactive) | > 10 µM (inactive) | > 100 µM (inactive) | – | > 100 µM (inactive) | – | > 100 µM (inactive) | – | > 100 µM (inactive)
13 | CCN(CC)CCCC(C)Nc1ccnc2ccc3nn(C)nc3c12 (stereo unspecified) | > 100 µM (inactive) | 40 µM (inactive) | 42.3 µM (inactive) | 39.6 µM (inactive) | – | 32.8 µM (inactive) | 23.7 µM (inactive) | – | 23.4 µM (inactive) | 30.1 µM (inactive) | 37.8 µM (inactive) | 38.9 µM (inactive) | – | > 100 µM (inactive) | > 100 µM (inactive) | –
14 | Cc1cc2c(cc1C)[n+]([O-])c(C(=O)CC(=O)C(=O)Nc1c(C(C)C)cccc1C(C)C)c(C)[n+]2[O-] | > 100 µM (inactive) | > 100 µM (inactive) | > 100 µM (inactive) | > 100 µM (inactive) | > 100 | > 100 µM (inactive) | > 100 µM (inactive) | > 100 µM (inactive) | > 100 µM (inactive) | – | > 100 µM (inactive) | > 100 µM (inactive) | > 100 µM (inactive) | > 100 µM (inactive) | > 100 µM (inactive) | > 100 µM (inactive)
15 | CCOP(=O)(OCC)C1CCCCOC1=O (stereo unspecified) | > 100 µM (inactive) | > 100 µM (inactive) | > 100 µM (inactive) | – | > 100 | – | > 100 µM (inactive) | > 100 µM (inactive) | 44 µM (inactive) | > 100 µM (inactive) | > 100 µM (inactive) | 95.9 µM (inactive) | > 100 µM (inactive) | > 100 µM (inactive) | > 100 µM (inactive) | > 100 µM (inactive)
16 | C[C@@H](NC1CCC[C@H]1O)c1ccccc1 (stereo partly specified) | > 100 µM (inactive) | > 100 µM (inactive) | > 100 µM (inactive) | > 100 µM (inactive) | > 100 | – | > 100 µM (inactive) | > 100 µM (inactive) | > 100 µM (inactive) | > 100 µM (inactive) | – | > 100 µM (inactive) | > 100 µM (inactive) | > 100 µM (inactive) | > 100 µM (inactive) | > 100 µM (inactive)
17 | O=C(Cn1ccnc1[N+](=O)[O-])NCc1ccc(F)cc1 | > 100 µM (inactive) | > 100 µM (inactive) | > 100 µM (inactive) | 40.2 µM (inactive) | > 100 | – | > 100 µM (inactive) | > 100 µM (inactive) | > 100 µM (inactive) | > 100 µM (inactive) | > 100 µM (inactive) | > 100 µM (inactive) | 33.5 µM (inactive) | > 100 µM (inactive) | > 100 µM (inactive) | > 100 µM (inactive)
18 | Nc1c(C(=O)Nc2ccccc2)[n+]([O-])c2ccccc2[n+]1[O-] | > 100 µM (inactive) | 21.2 µM (inactive) | 14.2 µM (inactive) | 23.9 µM (inactive) | 13.1 | – | 15.6 µM (inactive) | 17.6 µM (inactive) | 17.1 µM (inactive) | 17.9 µM (inactive) | 17.9 µM (inactive) | 14.8 µM (inactive) | 17.3 µM (inactive) | 25.9 µM (inactive) | 5.6 µM (inactive) | 15.8 µM (inactive)
19 | CC1=C(C(=O)CC(=O)C(=O)Nc2ccccc2)Sc2ccccc2N1 | > 100 µM (inactive) | > 100 µM (inactive) | > 100 µM (inactive) | > 100 µM (inactive) | > 100 | – | > 100 µM (inactive) | > 100 µM (inactive) | > 100 µM (inactive) | > 100 µM (inactive) | > 100 µM (inactive) | > 100 µM (inactive) | > 100 µM (inactive) | > 100 µM (inactive) | – | > 100 µM (inactive)
20 | COC(=O)C12C(=O)O[C@H](C)C1(O)C(C)C(=O)N2C (stereo partly specified) | > 100 µM (inactive) | > 100 µM (inactive) | > 100 µM (inactive) | – | > 100 | > 100 µM (inactive) | > 100 µM (inactive) | > 100 µM (inactive) | > 100 µM (inactive) | – | > 100 µM (inactive) | – | > 100 µM (inactive) | > 100 µM (inactive) | > 100 µM (inactive) | > 100 µM (inactive)
